Data reported in US8691799B2, “Materials and methods for treatment of cancer and identification of anti-cancer compounds” (priority 2001, dated 2014).
Entries after “also recorded” stand apart in the source; their conditions may differ.

Columns and labels:
phosphotyrosine STAT3 = test: Western blotting for phosphotyrosine STAT3 in cancer cell lines; format: cell-based, human; settings: A-549 cells; for inhibition of phospho STAT3 levels (in words): 0-10 μM; for IC50: Western blotting, read-out: IC50 for phospho-STAT3
Method: (§1) Western Blotting. Treated cell samples were lysed in 30 mM Hepes, pH 7.5, 10 mM NaCl, 5 mM MgCl2, 25 mM NaF, 1 mM EGTA, 1% Triton-X-100, 10% glycerol, 2 mM sodium orthovanadate, 10 μg/ml aprotinin, 10 μg/ml soybean trypsin inhibitor, 25 μg/ml leupeptin, 2 mM PMSF, and 6.4 mg/ml p-nitrophenylphosphate. Phospho-STAT3, phospho-AKT, phospho-MEK, and phospho-p42/p44 MAPK antibodies were obtained from Cell Signaling Technologies, Cambridge, Mass. Antibodies to STAT3, JAK2, and phospho-INK were purchased from Santa Cruz Biotechnology, Santa Cruz, Calif. Phospho-JAK2 antibody came from Upstate Biotechnology, Lake Placid, N.Y. Membranes were blocked in either 5% milk in PBS, pH 7.4, containing 0.1% Tween-20 (PBS-T) or 1% BSA in TBS, pH 7.5, containing 0.1% Tween-20 (TBS-T). Phospho-specific antibodies (excepting P-MAPK and P-JNK) were incubated in 1% BSA in TBS-T while all other antibodies were diluted in 5% milk in PBS-T for either 2 hr at room temperature or overnight at 4° C. HRP-conjugated secondary antibodies (Jackson ImmunoResearch) were diluted in 5% milk in either PBS-T or TBS-T at 1:1000 dilution for one hour at room temperature. Western blots were visualized using enhanced chemiluminescence as described previously (Blaskovich, M. A. et al. Nat. Biotechnol., 2000, 18:1065-1070).
Immunoprecipitation of STAT3. A549 cells were treated for 4 hr with vehicle or JSI-124, then lysed in 150 mM Hepes, pH 7.5, 150 mM NaCl, 1 mM EDTA, 0.5% Nonidet P-40 (NP-40), 10% glycerol, 5 mM NaF, 1 mM DTT, 1 mM PMSF, 2 mM sodium orthovanadate, and 5 μg/ml leupeptin. Sample lysates were collected and cleared, then 500 μg of lysate was immunoprecipitated with 50 ng STAT3 antibody overnight at 4° C. then rocked with 25 μl Protein A/G PLUS agarose (Santa Cruz Biotechnology) for 1 hr at 4° C. Samples were washed four times with lysis buffer then boiled in 2×SDS-PAGE sample buffer and run on 10% SDS-PAGE gel. Protein was transferred to nitrocellulose and then blotted as above for both phospho-specific STAT3 and STAT3.

v-Src/NIH 3T3 tumors = test: Antitumor activity, v-Src-transformed NIH 3T3 tumors in nude mice; format: in vivo; settings: for inhibition of growth of v-src transformed NIH 3T3 tumors (in words): 1 mg/Kg/day intraperitoneally
From the text: Antitumor Activity in the Nude Mouse Tumor Xenograft Model. Nude mice and C57 BL-6 black mice (National Cancer Institute, Bethesda, Md.) were maintained in accordance with the Institutional Animal Care and Use Committee (IACUC) procedures and guidelines. v-Src- and oncogenic H-Ras-transformed NIH 3T3, A549, MDA-MB-468 and Calu-1 cells were harvested, resuspended in PBS and injected s.c. into the right and left flank (10×10^6 cells per flank) of 8 week old female nude mice as reported previously (Sun, J. et al. Cancer Res., 1999, 59:4919-4926). Similarly, murine B16-F10 Melanoma cells were injected s.c. into the right and left flank (10^6 cells per flank) of C57 black mice. […] […] The tumor volumes were determined by measuring the length (l) and the width (w) and calculating the volume (V=1w^2/2) as described previously (Sun, J. et al. Cancer Res., 1999, 59:4919-4926). Statistical significance between control and treated animals were evaluated by using Student's t-test. For the mouse survival experiments, C57 BL-6 black mice were implanted s.c. with B16-F10 cells (10^5 to 10^6 cells per flank). […] Percent surviving mice was determined by monitoring the death of mice until all mice died. Two experiments of 12 animals each (6 control and 6 treated with JSI-124) were carried out. For statistical analysis: for each of the two experiments, mice receiving JSI-124 were compared to those receiving vehicle control with respect to survival using the permutation log rank test as implemented in the statistical software package, ProcStatXact (p-values are two sided and exact).

phosphotyrosine JAK2 = test: Western blotting for phosphotyrosine JAK2; format: cell-based, human; settings: A-549 cells; for inhibition of phospho JAK2 levels (in words): 0-10 μM; for IC50: Western blotting, read-out: IC50 for phospho-JAK2
Method: as §1

[1] = Tolerability observations in treated mice; format: in vivo
From the text: Antitumor Activity in the Nude Mouse Tumor Xenograft Model. Nude mice and C57 BL-6 black mice (National Cancer Institute, Bethesda, Md.) were maintained in accordance with the Institutional Animal Care and Use Committee (IACUC) procedures and guidelines. v-Src- and oncogenic H-Ras-transformed NIH 3T3, A549, MDA-MB-468 and Calu-1 cells were harvested, resuspended in PBS and injected s.c. into the right and left flank (10×10^6 cells per flank) of 8 week old female nude mice as reported previously (Sun, J. et al. Cancer Res., 1999, 59:4919-4926). Similarly, murine B16-F10 Melanoma cells were injected s.c. into the right and left flank (10^6 cells per flank) of C57 black mice. When tumors reached about 150 mm^3, animals were randomized (five animals per group; two tumors per animal) and dosed i.p. with 0.2 ml once daily. […] The tumor volumes were determined by measuring the length (l) and the width (w) and calculating the volume (V=1w^2/2) as described previously (Sun, J. et al. Cancer Res., 1999, 59:4919-4926). Statistical significance between control and treated animals were evaluated by using Student's t-test. For the mouse survival experiments, C57 BL-6 black mice were implanted s.c. with B16-F10 cells (10^5 to 10^6 cells per flank). On day 5 after implantation the mice were randomized (6 animals per group) and treated with either vehicle or JSI-124 (1 mg/Kg/day) for 25 days. Percent surviving mice was determined by monitoring the death of mice until all mice died. Two experiments of 12 animals each (6 control and 6 treated with JSI-124) were carried out. For statistical analysis: for each of the two experiments, mice receiving JSI-124 were compared to those receiving vehicle control with respect to survival using the permutation log rank test as implemented in the statistical software package, ProcStatXact (p-values are two sided and exact).

CC(=O)OC(C)(C)/C=C/C(=O)[C@](C)(O)[C@H]1[C@H](O)C[C@@]2(C)[C@@H]3CC=C4[C@@H](C[C@H](O)C(=O)C4(C)C)[C@]3(CO)C(=O)C[C@]12C [cucurbitacin A]
inhibition of phospho STAT3 levels (in words) (phosphotyrosine STAT3): not phospho STAT3 levels; also recorded: no phospho STAT3 levels
IC50 (phosphotyrosine STAT3): > 10000 nM
inhibition of growth of v-src transformed NIH 3T3 tumors (in words) (v-Src/NIH 3T3 tumors): did not significantly inhibit tumor growth
inhibition of growth of v-src transformed NIH 3T3 tumors (in words) (v-Src/NIH 3T3 tumors; listed as curbitacin A): did not
inhibition of growth of v-Src/NIH 3T3 tumors (v-Src/NIH 3T3 tumors; 1 mg/kg/day i.p.): 16%
inhibition of phospho JAK2 levels (in words) (phosphotyrosine JAK2): inhibits only phospho JAK2
IC50 (phosphotyrosine JAK2): 1000 nM

CC(=O)OC(C)(C)/C=C/C(=O)[C@](C)(O)[C@H]1[C@H](O)C[C@@]2(C)[C@@H]3CC=C4[C@H](C[C@H](O)C(=O)C4(C)C)[C@]3(C)C(=O)C[C@]12C [cucurbitacin B]
additional loss of inhibitory activity against phosphotyrosine-STAT3 versus cucurbitacin E (phosphotyrosine STAT3): five-fold
IC50 (phosphotyrosine STAT3): 4000 nM
inhibition of growth of v-Src/NIH 3T3 tumors, 0.2 mpk/day (v-Src/NIH 3T3 tumors; 0.2 mpk/day): 40%
toxicity in tumor-bearing nude mice at 1 mpk ([1]; 1 mg/kg/day i.p.): toxic
toxicity in tumor-bearing nude mice at 0.2 mpk/day ([1]; 0.2 mpk/day (200 μg/kg/day)): not toxic
IC50 (phosphotyrosine JAK2): 200 nM

CC(C)(O)/C=C/C(=O)[C@](C)(O)[C@H]1[C@H](O)C[C@@]2(C)[C@@H]3CC=C4[C@@H](C[C@H](O)C(=O)C4(C)C)[C@]3(C)C(=O)C[C@]12C [cucurbitacin D]
reduction of activity against phospho STAT3 versus cucurbitacin B (phosphotyrosine STAT3): 2 fold
change of activity against phospho JAK2 versus cucurbitacin B (phosphotyrosine JAK2): no effects

CC(=O)OC(C)(C)/C=C/C(=O)[C@](C)(O)[C@H]1[C@H](O)C[C@@]2(C)[C@@H]3CC=C4[C@@H](C=C(O)C(=O)C4(C)C)[C@]3(C)C(=O)C[C@]12C [cucurbitacin E]
loss of activity against phospho-STAT3 versus cucurbitacin I (phosphotyrosine STAT3): four-fold
IC50 (phosphotyrosine STAT3): 800 nM
inhibition of growth of v-src transformed NIH 3T3 tumors (in words) (v-Src/NIH 3T3 tumors): inhibit tumor growth
IC50 (phosphotyrosine JAK2): 200 nM

CC(C)(O)CCC(=O)[C@](C)(O)[C@H]1[C@H](O)C[C@@]2(C)[C@@H]3CC=C4[C@@H](C[C@H](O)C(=O)C4(C)C)[C@]3(C)C(=O)C[C@]12C [tetrahydro-cucurbitacin I]
change of activity against phospho-STAT3 versus cucurbitacin I (phosphotyrosine STAT3): reduction of activity against phospho-STAT3 and phospho JAK2
inhibition of growth of v-src transformed NIH 3T3 tumors (in words) (v-Src/NIH 3T3 tumors): inhibit tumor growth
change of activity against phospho JAK2 versus cucurbitacin I (phosphotyrosine JAK2): reduction of activity against phospho-STAT3 and phospho JAK2

cucurbitacin Q
gain in activity against STAT3 activation versus cucurbitacin B (phosphotyrosine STAT3): 2 fold
inhibition of phospho STAT3 levels (in words) (phosphotyrosine STAT3): inhibits phospho STAT3
IC50 (phosphotyrosine STAT3): 2000 nM
inhibition of growth of v-src transformed NIH 3T3 tumors (in words) (v-Src/NIH 3T3 tumors): inhibit tumor growth; also recorded: as potent as curcubatacin I at inhibiting tumor growth
inhibition of growth of v-src transformed NIH 3T3 tumors (in words) (v-Src/NIH 3T3 tumors; listed as Cucurbitacin Q): as potent as cucurbatacin I at inhibiting tumor growth
inhibition of phospho JAK2 levels (in words) (phosphotyrosine JAK2): not phospho JAK2 levels
IC50 (phosphotyrosine JAK2): > 10000 nM
